assay: in vitro; details: human, hela cells, % viability

Row | Structure (SMILES) | viability at 28.5 h, 10 µM [%]
1 | CC(C)Nc1nccnc1-c1cccnc1 [CBK037054] | 98.9
2 | CC(O)CNc1nccnc1-c1cccc(O)c1 (stereo not shown) [CBK037055] | 97.6
3 | CC(O)CNc1nccnc1-c1cccc(CO)c1 (stereo not shown) [CBK037056] | 91.5
4 | C[C@@H](Nc1nccnc1-c1ccc(C(=O)N2CCOCC2)cc1)c1ccccc1 [CBK037058] | 107
5 | Clc1cc(N[C@@H]2CCN(Cc3ccccc3)C2)n2nccc2n1 [CBK037069] | 92.3
6 | COc1cc(-c2nccnc2NCc2ccco2)cc(OC)c1OC [CBK037072] | 111
7 | COc1ccc(CNc2cc(/C=C/c3ccccc3)nc3ccnn23)cc1 [CBK037075] | 103
8 | O=C(CCc1cccc(F)c1)Nc1cnc(-c2ccc(F)cc2)c(-c2ccoc2)n1 [CBK037077] | 85.3
9 | OCCCNc1cc(Nc2ccccc2)n2nccc2n1 [CBK037078] | 102
10 | COc1ccccc1-c1nccnc1N1CCN(c2ccncc2)CC1 [CBK037081] | 87.8
11 | CCC(CO)Nc1nccnc1-c1cccc(C(=O)N2CCN(C)CC2)c1 (stereo not shown) [CBK037087] | 92.6
12 | COc1ccc(C(C)C)cc1-c1cc(NCCc2cccnc2)n2nccc2n1 [CBK037097] | 104
13 | OCc1ccccc1-c1nccnc1NCc1ccco1 [CBK037098] | 94.5
14 | O=C(Cc1csc2ccccc12)Nc1cnc(-c2ccc(F)cc2)c(-c2ccoc2)n1 [CBK037102] | 93.3
15 | OCc1ccccc1-c1cc(N2CCN(Cc3cccnc3)CC2)n2nccc2n1 [CBK037105] | 98.9
16 | Clc1cc(Nc2cccc(OCc3ccccc3)c2)n2nccc2n1 [CBK037109] | 92.2
17 | COc1ccccc1OCC(=O)Nc1cnc(-c2cccc(C)c2)c(-c2cccnc2)n1 [CBK037112] | 84.1
18 | CN(c1ccccc1)c1cc(-c2cccc(O)c2)nc2ccnn12 [CBK037121] | 91
19 | COc1cc(CNc2cc(-c3ccccc3N(C)C)ncn2)cc(OC)c1OC [CBK037123] | 93.1
20 | CCCC/C=C/c1cc(NCCC)n2nccc2n1 [CBK037127] | 99.1
21 | COc1ccc(C(C)C)cc1-c1cncc(NCC(c2cccnc2)N(C)C)n1 (stereo not shown) [CBK037132] | 110
22 | Cc1cccc(-c2ncc(NC(=O)C3CC3)nc2-c2cccnc2)c1 [CBK037134] | 98.9
23 | CN1CCN(c2ccc(-c3cncc(NCCc4ccccn4)n3)cn2)CC1 [CBK037135] | 87.2

Row | Structure (SMILES) | viability at 28.5 h, 10 µM [%]
24 | CCCC/C=C/c1nccnc1N[C@@H](C)c1ccccc1 [CBK037138] | 84.7
25 | CN(C)CCN(C)c1cc(-c2cccc(Br)c2)nc2ccnn12 [CBK037140] | 106
26 | CN(C)CCN(C)c1cncc(-c2ccc3ccccc3c2)n1 [CBK037146] | 77.7
27 | COc1ccc(-c2nc(NC(=O)c3cnccn3)cnc2-c2ccc(F)cc2)cc1 [CBK037150] | 104
28 | CC(=O)c1ccc(-c2nc(NC(=O)CC3OC(=O)c4ccccc43)cnc2-c2cccc(C)c2)s1 (stereo not shown) [CBK037152] | 112
29 | CCCC/C=C/c1cc(NCCc2ccccn2)n2nccc2n1 [CBK037155] | 96.5
30 | CN1CCN(c2cc(-c3ccccc3N(C)C)nc3ccnn23)CC1 [CBK037158] | 108
31 | O=C(CCOc1ccc(F)cc1)Nc1cnc(-c2ccc(F)cc2)c(-c2ccoc2)n1 [CBK037166] | 91.9
32 | O=C(CS(=O)(=O)c1ccccc1)Nc1cnc(-c2ccc(F)cc2)c(-c2ccoc2)n1 [CBK037168] | 107
33 | C[C@H](Nc1nccnc1-c1cccc(O)c1)c1ccccc1 [CBK037180] | 106
34 | OCCN1CCN(c2cc(Nc3ccc(Oc4ccccc4)cc3)nc3ccnn23)CC1 [CBK037185] | 94.9
35 | O=C(NCCO)c1cccc(-c2cc(N3CCCC3CO)n3nccc3n2)c1 (stereo not shown) [CBK037187] | 96.7
36 | CN(C)c1ccccc1-c1cc(NCCc2ccccn2)ncn1 [CBK037189] | 102
37 | CN(C)c1ccc(-c2cncc(NCc3ccc4c(c3)OCO4)n2)cc1 [CBK037190] | 108
38 | OCC1CCCN1c1cncc(-c2ccc3ccccc3c2)n1 (stereo not shown) [CBK037197] | 104
39 | COc1ccc(-c2nc(NC(=O)CC#N)cnc2-c2ccc(F)cc2)cc1 [CBK037198] | 104
40 | CC(C)(CO)CNc1cc(Cl)nc2ccnn12 [CBK037200] | 91
41 | CN(C)c1ccc(Nc2cc(Cl)nc3ccnn23)cc1 [CBK037203] | 98.3
42 | CN(C)CCN(C)c1cc(-c2cccc(C(=O)O)c2)nc2ccnn12 [CBK037206] | 101
43 | CCCNc1nccnc1-c1cc(C)c(O)c(C)c1 [CBK037210] | 87.6
44 | CN(C)CCN1CCN(c2cc(Nc3ccc(N(C)C)cc3)nc3ccnn23)CC1 [CBK037211] | 93.4
45 | CN1CCCN(c2cncc(-c3cccnc3)n2)CC1 [CBK037215] | 92.9
46 | Nc1cccc(-c2cncc(NCC3CCOCC3)n2)c1 [CBK037221] | 96.8

Row | Structure (SMILES) | viability at 28.5 h, 10 µM [%]
47 | COc1ccc(-c2cncc(N3CCCC3CO)n2)cc1 (stereo not shown) [CBK037223] | 112
48 | CN1CCN(c2ccc(-c3cncc(NC4CCOCC4)n3)cn2)CC1 [CBK037229] | 105
49 | CCCNc1nccnc1-c1ccccc1F [CBK037231] | 104
50 | COc1cc(Nc2cc(-c3cccc(N)c3)nc3ccnn23)cc(OC)c1OC [CBK037236] | 105
51 | Clc1cccc(-c2cncc(NCC3CCOCC3)n2)c1 [CBK037237] | 103
52 | Fc1ccc(-c2cn3ccnc3c(Nc3cccc(OC(F)(F)C(F)F)c3)n2)cc1Cl [CBK037265] | 98.1
53 | COc1ccccc1-c1cn2ccnc2c(N2CCCC2CO)n1 (stereo not shown) [CBK037266] | 96.5
54 | CCCC/C=C/c1nccnc1NCC1CC1 [CBK037268] | 100
55 | COc1ccc(C(C)C)cc1-c1cn2ccnc2c(NCc2ccco2)n1 [CBK037269] | 98.2
56 | c1ccc(CCNc2nc(-c3ccc(N4CCOCC4)cc3)cn3ccnc23)nc1 [CBK037271] | 96.4
57 | CCCC/C=C/c1cncc(N2CCN(c3ccccn3)CC2)n1 [CBK037276] | 117
58 | OCCCNc1nccnc1-c1cccnc1 [CBK037277] | 108
59 | COc1cc(-c2cn3ccnc3c(NCC3CCOCC3)n2)cc(OC)c1OC [CBK037284] | 96.8
60 | COc1ccc(-c2cncc(NCC3CCOCC3)n2)cc1 [CBK037285] | 96.5
61 | COc1cc(Nc2nc(-c3ccccc3F)cn3ccnc23)cc(OC)c1OC [CBK037301] | 98.9
62 | Cc1ccc(S(=O)(=O)Nc2ccc(Nc3nc(-c4ccccc4)cn4ccnc34)cc2)cc1 [CBK037303] | 104
63 | CCCC/C=C/c1nccnc1NCc1ccc2c(c1)OCO2 [CBK037304] | 98.1
64 | c1cncc(-c2nccnc2NCC2CC2)c1 [CBK037310] | 80.9
65 | COc1cc(CNc2nccnc2-c2ccco2)cc(OC)c1OC [CBK037320] | 89.9
66 | COCCNc1nccnc1-c1cccc(C(F)(F)F)c1 [CBK037330] | 89.7
67 | c1coc(-c2cn3ccnc3c(NCCc3ccncc3)n2)c1 [CBK037333] | 93.5

From PMC12040169 (PLOS Biology, 2025)
